Measurements from ChEMBL document CHEMBL1155466, “Structure-activity relationships of 6-methyl-benzo[b]thiophene-2-carboxylic acid (1-[(S)-1-benzyl-4-[4-(tetrahydropyran-4-ylmethyl)piperazin-1-yl]butylcarbamoyl]cyclopentyl)amide, potent antagonist of the neurokinin-2 receptor” (J Med Chem, 2010).

Experiments:
Substance-K receptor = target: T1, Substance-K receptor (Homo sapiens, UniProt P21452); assay: Displacement of [3H]neurokinin A from human NK2 receptor
T1 sequence (P21452 whole entry): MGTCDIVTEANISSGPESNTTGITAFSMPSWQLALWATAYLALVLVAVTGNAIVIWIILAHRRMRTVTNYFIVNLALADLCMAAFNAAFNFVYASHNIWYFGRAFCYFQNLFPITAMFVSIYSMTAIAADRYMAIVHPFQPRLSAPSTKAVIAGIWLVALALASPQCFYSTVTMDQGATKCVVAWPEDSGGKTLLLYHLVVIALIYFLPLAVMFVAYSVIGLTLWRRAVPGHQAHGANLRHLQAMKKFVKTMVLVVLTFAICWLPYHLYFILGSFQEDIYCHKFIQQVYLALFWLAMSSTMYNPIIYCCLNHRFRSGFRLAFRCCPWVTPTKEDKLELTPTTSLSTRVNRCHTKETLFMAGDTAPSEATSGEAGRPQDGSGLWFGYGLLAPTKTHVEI

[1] = target: T2, Substance-K receptor (Cavia porcellus) (UniProt Q64077); assay: Antagonist activity at NK2 receptor in Dunkin-Hartley guinea pig colon smooth muscle assessed as inhibition of [beta-Ala8]NKA(4-10)-induced tissue contraction in presence of NK1 receptor antagonist SR-140333; type: functional, tissue-based
T2 sequence (whole entry): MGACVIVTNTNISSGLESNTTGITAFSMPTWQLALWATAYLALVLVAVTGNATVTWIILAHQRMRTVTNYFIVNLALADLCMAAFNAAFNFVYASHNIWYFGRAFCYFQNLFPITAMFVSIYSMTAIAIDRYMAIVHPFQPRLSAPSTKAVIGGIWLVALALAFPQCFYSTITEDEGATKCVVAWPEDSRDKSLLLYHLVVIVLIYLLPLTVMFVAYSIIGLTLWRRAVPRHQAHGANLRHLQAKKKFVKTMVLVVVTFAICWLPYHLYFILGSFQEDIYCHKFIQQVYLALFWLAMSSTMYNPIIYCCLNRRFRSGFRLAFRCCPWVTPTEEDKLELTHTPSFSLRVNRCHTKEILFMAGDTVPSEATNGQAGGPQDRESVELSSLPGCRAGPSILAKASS

Cavia porcellus = assay: Inhibition of [beta-Ala8]NKA(4-10)-induced colonic contractions in Dunkin-Hartley guinea pig at 3 umol/kg, iv after 4 hrs relative to control; type: functional
[2] = Apparent permeability from apical to basolateral side of human Caco-2 cells at 100 uM

SMILES | Ki (Substance-K receptor) [pM] | pKb [1] | Imax (Cavia porcellus) [%] | Papp A→B at 100 µM [2] [×10⁻⁶ cm/s]
Cc1ccc2cc(C(=O)NC3(C(=O)N[C@@H](CCCN4CCN(S(=O)(=O)N5CCOCC5)CC4)Cc4ccccc4)CCCC3)sc2c1 | 501 | 8.4 | 97 | 
Cc1ccc2cc(C(=O)NC3(C(=O)N[C@@H](CCCN4CCC(CCO)CC4)Cc4ccccc4)CCCC3)sc2c1 | 2000 | 8.1 | 47 | 
O=C(NC1(C(=O)N[C@@H](CCCN2CCN(CC3CCOCC3)CC2)Cc2ccccc2)CCCC1)c1cc2cc(Cl)ccc2o1 | 251 | 7.6 | 100 | 13.7
Cc1ccc2cc(C(=O)NC3(C(=O)N[C@H](Cc4ccccc4)CN4CCN(CC5CCOCC5)CC4)CCCC3)sc2c1 | 2000 | 7.6 |  | 
Cc1ccc2cc(C(=O)NC3(C(=O)N[C@@H](CCCN4CCN(C5CCOCC5)CC4)Cc4ccccc4)CCCC3)sc2c1 | 251 | 8.1 | 100 | 
Cc1ccc2cc(C(=O)NC3(C(=O)N[C@@H](CCCN4CCN(Cc5ccncc5)CC4)Cc4ccccc4)CCCC3)sc2c1 | 251 | 8.4 | 86 | 
Cc1ccc2cc(C(=O)NC3(C(=O)N[C@@H](CCN4CCN(CC5CCOCC5)CC4)Cc4ccccc4)CCCC3)sc2c1 | 15800 |  |  | 
Cc1ccc2cc(C(=O)NC3(C(=O)N[C@@H](CCCN4CCC(N(C)C5CCOCC5)CC4)Cc4ccccc4)CCCC3)sc2c1 | 1260 | 7.8 |  | 
CO/N=C(\N1CCOCC1)N1CCN(CCC[C@@H](Cc2ccccc2)NC(=O)C2(NC(=O)c3cc4ccc(C)cc4s3)CCCC2)CC1 |  |  | 100 | 
Cc1ccc2cc(C(=O)NC3(C(=O)N[C@@H](CCCN4CCN(C(=O)C5CCOCC5)CC4)Cc4ccccc4)CCCC3)sc2c1 |  | 8.1 | 97 | 
Cc1ccc2cc(C(=O)NC3(C(=O)N[C@@H](CCC(=O)N4CCC(N(C)C5CCOCC5)CC4)Cc4ccccc4)CCCC3)sc2c1 | 316 | 7.8 | 90 | 
Cc1ccc2cc(C(=O)NC3(C(=O)N[C@@H](CCCN4CCN(Cc5ccccn5)CC4)Cc4ccccc4)CCCC3)sc2c1 | 158 | 7.9 | 90 | 
Cc1ccc2cc(C(=O)NC3(C(=O)N[C@@H](COCCC4CCN(CC5CCOCC5)CC4)Cc4ccccc4)CCCC3)sc2c1 |  | 6.9 |  | 
Cc1ccc2cc(C(=O)NC3(C(=O)N[C@@H](/C=C/CN4CCN(CC5CCOCC5)CC4)Cc4ccccc4)CCCC3)sc2c1 | 501 | 8.2 | 72 | 
Cc1ccc2cc(C(=O)NC3(C(=O)N[C@@H](CCCN4CCN(Cc5ccoc5)CC4)Cc4ccccc4)CCCC3)sc2c1 | 158 | 8.2 | 67 | 
Cc1ccc2cc(C(=O)NC3(C(=O)N[C@@H](CCC(=O)N4CCN(C5CCOCC5)CC4)Cc4ccccc4)CCCC3)sc2c1 | 79.4 | 8.2 | 99 | 
Cc1ccc2oc(C(=O)NC3(C(=O)N[C@@H](CCCN4CCN(CC5CCOCC5)CC4)Cc4ccccc4)CCCC3)cc2c1 | 398 | 8.7 | 100 | 
Cc1ccc2cc(C(=O)NC3(C(=O)N[C@@H](CCCN4CCN(Cc5ccc(F)cc5)CC4)Cc4ccccc4)CCCC3)sc2c1 | 126 | 8.2 | 66 | 
Cl.N[C@@H](CCC(=O)N1CCN(CC2CCOCC2)CC1)Cc1ccccc1 | 79.4 | 7.9 | 99 | 
Cc1ccc2cc(C(=O)NC3(C(=O)N[C@@H](CCCN4CCN(Cc5cccnc5)CC4)Cc4ccccc4)CCCC3)sc2c1 | 316 | 8.2 | 84 | 
Cc1ccc2cc(C(=O)NC3(C(=O)N[C@@H](CCCN4CCN(S(=O)(=O)N(C)C)CC4)Cc4ccccc4)CCCC3)sc2c1 | 316 | 7.9 | 80 | 
Cc1ccc2cc(C(=O)NC3(C(=O)N[C@@H](CCCN4CCN(Cc5cnc[nH]5)CC4)Cc4ccccc4)CCCC3)sc2c1 | 1000 |  |  | 
Cc1ccc(-c2ccc(C(=O)NC3(C(=O)N[C@@H](CCCN4CCN(CC5CCOCC5)CC4)Cc4ccccc4)CCCC3)cc2)cc1 | 631 | 7.8 | 60 | 7.1
CCOCCCN1CCN(CCC[C@@H](Cc2ccccc2)NC(=O)C2(NC(=O)c3cc4ccc(C)cc4s3)CCCC2)CC1 | 316 | 7.2 |  | 

SMILES | Ki (Substance-K receptor) [pM] | pKb [1] | Imax (Cavia porcellus) [%] | Papp A→B at 100 µM [2] [×10⁻⁶ cm/s]
Cc1ccc2cc(C(=O)NC3(C(=O)N[C@@H](CCC(=O)N4CCC(N5CCOCC5)CC4)Cc4ccccc4)CCCC3)sc2c1 | 2000 | 7.8 |  | 
O=C(NC1(C(=O)N[C@@H](CCCN2CCN(CC3CCOCC3)CC2)Cc2ccccc2)CCCC1)c1ccc(-c2ccccc2)cc1 | 501 | 8.7 | 86 | 13.6
Cc1ccc2cc(C(=O)NC3(C(=O)N[C@@H](CCCN4CCN(c5ncccn5)CC4)Cc4ccccc4)CCCC3)sc2c1 | 794 | 8 | 63 | 
Cc1ccc2cc(C(=O)NC3(C(=O)N[C@@H](CCCN4CCN(Cc5nnn(C)n5)CC4)Cc4ccccc4)CCCC3)sc2c1 | 316 | 7.9 | 72 | 
Cc1ccc2cc(C(=O)NC3(C(=O)N[C@@H](CCCN4CCC(CN5CCOCC5)CC4)Cc4ccccc4)CCCC3)sc2c1 | 1000 | 7.8 | 62 | 
Cc1ccc2cc(C(=O)NC3(C(=O)N[C@@H](CCCN4CCN(C(=O)N5CCOCC5)CC4)Cc4ccccc4)CCCC3)sc2c1 | 398 | 8.3 | 85 | 
Cc1ccc2cc(C(=O)NC3(C(=O)N[C@@H](CCCN4CCN(S(N)(=O)=O)CC4)Cc4ccccc4)CCCC3)sc2c1 | 631 | 7.8 | 62 | 
Cc1ccc2cc(C(=O)NC3(C(=O)N[C@@H](COCC4CCN(CC5CCOCC5)CC4)Cc4ccccc4)CCCC3)sc2c1 | 631 | 7.6 | 46 | 
Cc1ccc2cc(C(=O)NC3(C(=O)N[C@@H](CCCN4CCN(C(=O)c5cccn5C)CC4)Cc4ccccc4)CCCC3)sc2c1 | 398 | 8.2 | 100 | 
Cc1ccc2cc(C(=O)NC3(C(=O)N[C@@H](CCCN4CCN(Cc5cccs5)CC4)Cc4ccccc4)CCCC3)sc2c1 | 158 | 7.7 | 83 | 
O=C(NC1(C(=O)N[C@@H](CCCN2CCN(CC3CCOCC3)CC2)Cc2ccccc2)CCCC1)c1ccc2ccccc2c1 | 316 | 8.2 |  | 14.6
CC/N=C(\N1CCOCC1)N1CCN(CCC[C@@H](Cc2ccccc2)NC(=O)C2(NC(=O)c3cc4ccc(C)cc4s3)CCCC2)CC1 | 794 | 8 |  | 
Cc1ccc2cc(C(=O)NC3(C(=O)N[C@@H](CCCC4CCN(CC5CCOCC5)CC4)Cc4ccccc4)CCCC3)sc2c1 |  | 7.9 | 67 | 
Cc1ccc2cc(C(=O)NC3(C(=O)N[C@H](CCCN4CCN(CC5CCOCC5)CC4)Cc4ccccc4)CCCC3)sc2c1 | 631 | 7.7 |  | 
Cc1ccc2cc(C(=O)NC3(C(=O)N[C@@H](CCCN4CCN(Cc5ccsc5)CC4)Cc4ccccc4)CCCC3)sc2c1 | 158 | 8.2 | 88 | 
Cc1ccc2cc(C(=O)NC3(C(=O)N[C@@H](CCCN4CCC(C(=O)N5CCOCC5)CC4)Cc4ccccc4)CCCC3)sc2c1 | 794 | 7.8 | 81 | 
CCS(=O)(=O)N1CCN(CCC[C@@H](Cc2ccccc2)NC(=O)C2(NC(=O)c3cc4ccc(C)cc4s3)CCCC2)CC1 | 631 | 8 | 77 | 
Cc1ccc2cc(C(=O)NC3(C(=O)N[C@@H](CCCN4CCC(N5CCOCC5)CC4)Cc4ccccc4)CCCC3)sc2c1 | 501 | 7.8 |  | 
O=C(NC1(C(=O)N[C@@H](CCCN2CCN(CC3CCOCC3)CC2)Cc2ccccc2)CCCC1)c1cc2ccccc2s1 | 251 | 8.2 | 82 | 
Cc1ccc2cc(C(=O)NC3(C(=O)N[C@@H](CCCN4CCN(S(=O)(=O)C(C)C)CC4)Cc4ccccc4)CCCC3)sc2c1 | 501 | 7.9 | 85 | 
Cc1ccc2cc(C(=O)NC3(C(=O)N[C@@H](CCCN4CCN(Cc5c[nH]cn5)CC4)Cc4ccccc4)CCCC3)sc2c1 |  | 8 | 83 | 
Cc1ccc2cc(C(=O)NC3(C(=O)N[C@@H](CCCN4CCN(C=O)CC4)Cc4ccccc4)CCCC3)sc2c1 | 2000 | 7.8 |  | 
Cc1ccc2cc(C(=O)NC3(C(=O)N[C@@H](CCCN4CCN(c5ccccn5)CC4)Cc4ccccc4)CCCC3)sc2c1 | 631 | 7.8 | 76 | 
